# Where two headings read alike, the source gives them in different places.
# Columns and labels:
# [1] = biological target: T1, PPARγ-RXRα heterodimer (Homo sapiens, UniProt P37231); assay: PPARγ-RXRα heterodimer ligand activity, luciferase reporter in PPARγ:RXRα:4ERPP/CHO-K1 cells (Test Example 3); assay type: cell-based; conditions: concentration for 50% of the maximum fold induction of luciferase activity; 48 hours, CHO-K1 cells
# T1 construct: expressed in transfected cells; host or cells: CHO-K1
# T1 sequence (P37231 1-477 isoform P37231-2): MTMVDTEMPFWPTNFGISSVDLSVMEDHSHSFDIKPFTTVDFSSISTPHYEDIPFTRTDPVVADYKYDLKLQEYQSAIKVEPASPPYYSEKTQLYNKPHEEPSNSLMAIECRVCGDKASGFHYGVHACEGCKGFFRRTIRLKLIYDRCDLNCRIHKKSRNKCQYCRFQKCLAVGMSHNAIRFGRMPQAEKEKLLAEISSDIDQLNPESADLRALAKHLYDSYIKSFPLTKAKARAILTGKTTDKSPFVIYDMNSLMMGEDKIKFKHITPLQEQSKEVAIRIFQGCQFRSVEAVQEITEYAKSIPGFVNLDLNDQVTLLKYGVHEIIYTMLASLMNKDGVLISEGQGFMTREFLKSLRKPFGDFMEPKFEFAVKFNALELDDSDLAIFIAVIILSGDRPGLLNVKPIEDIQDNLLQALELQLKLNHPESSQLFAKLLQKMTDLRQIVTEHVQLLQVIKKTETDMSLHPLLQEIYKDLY
# T1 sequence (P19793 1-462 partner): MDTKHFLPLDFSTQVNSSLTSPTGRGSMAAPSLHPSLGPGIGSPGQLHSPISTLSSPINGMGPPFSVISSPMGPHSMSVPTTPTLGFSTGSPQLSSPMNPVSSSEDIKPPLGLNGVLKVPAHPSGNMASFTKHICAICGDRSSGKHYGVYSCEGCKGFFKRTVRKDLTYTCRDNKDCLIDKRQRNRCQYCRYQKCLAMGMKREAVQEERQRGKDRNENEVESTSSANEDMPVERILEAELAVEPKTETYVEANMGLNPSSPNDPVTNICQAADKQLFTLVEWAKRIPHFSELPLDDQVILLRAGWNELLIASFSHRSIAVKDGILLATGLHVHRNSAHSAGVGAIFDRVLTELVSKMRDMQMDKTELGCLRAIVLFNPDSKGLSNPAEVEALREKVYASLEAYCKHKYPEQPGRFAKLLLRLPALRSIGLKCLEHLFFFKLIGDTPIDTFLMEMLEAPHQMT
# Method in brief: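 CHO-K1 cells stably carrying hPPARγ/RXR expression plasmid and 4ERPP-TK luciferase reporter, treated 48 h at 37 °C in HAM F12 with 0.1% fatty-acid-free BSA. Luciferase fold induction taken over untreated cells; EC50 at 50% of maximal fold induction.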
# [2] = test system: KKAY mice; assay: Hypoglycemic and hypolipidemic actions in mice (Test Example 1); assay type: in vivo; conditions: Mus musculus, po, 96 h, 0.005% in powdery diet, four days
# Text: Test compounds were mixed in a powdery diet (CE-2, Japan Clea) at the concentration of 0.01% (compounds of Examples 7, 26, 29, 32) or 0.005% (compounds of Examples 1, 11, 15, 18, 24, 36, 37, 41, 48, 50, 51, 52, 58, 62, 79, 83, 88, 90, 91, 92, 93, 97, 107, 110, 115, 119, 122, 125, 129 and 130), and freely given to KKAY mice (11 to 12 weeks old, 5 mice in a group), a model of type 2 diabetes mellitus, for four days. During this period, water was given freely. Blood was sampled from orbital venous plexus, and glucose and triglyceride levels in plasma separated from blood were determined enzymatically using L type Wako Glu2 (Wako Pure Chemical Industries, Ltd.) or L type Wako TG.H (Wako Pure Chemical Industries, Ltd.), respectively.
# In the Table, “hypoglycemic action (%)” means a percent reduction (%) of the glucose level in the test compound administration group when that of the test compound non-administration group is taken as 100%. In addition, the “hypolipidemic action (%)” means a percent reduction (%) of the triglyceride level in the test compound administration group when that of the test compound non-administration group is taken as 100%.
# [3] = percent reduction of plasma glucose level vs non-administration group, read-out: hypoglycemic action (%)
# [4] = percent reduction of plasma triglyceride level vs non-administration group, read-out: hypolipidemic action (%)
SMILES,melting point [°C],EC50 [1] [nM],"inhibition in vivo at 0.005 % [2, 3] [%]","inhibition in vivo at 0.005 % [2, 4] [%]"
"O=C(O)Cc1ccccc1OCc1ccc(OCc2csc(-c3ccccc3)n2)cc1 [Example 51, 2-[2-[4-[(2-phenyl-4-thiazolyl)methoxy]benzyloxy]phenyl]acetic acid]",115 to 116,1200,55,79
"Cc1sc(-c2ccccc2)nc1COc1ccc(COc2ccccc2CC(=O)O)cc1 [Example 52, 2-[2-[4-[(5-methyl-2-phenyl-4-thiazolyl)methoxy]benzyloxy]phenyl]acetic acid]",122 to 123,230,56,61
"Cc1oc(-c2ccccc2)nc1COc1cc(COc2cccc(CC(=O)O)c2)ccn1 [Example 62, 2-[3-[2-[(5-methyl-2-phenyl-4-oxazolyl)methoxy]-4-pyridylmethoxy]phenyl]acetic acid]",148 to 149,20,47,44
"Cc1oc(-c2ccccc2)nc1COc1cc(COc2ccccc2CC(=O)O)on1 [Example 79, 2-[2-[3-(5-methyl-2-phenyl-4-oxazolylmethoxy)-5-isoxazoly]methoxylphenyl]acetic acid]",152 to 153,9.2,54,96
"COc1cc(COc2ncccc2CC(=O)O)ccc1OCc1nc(-c2ccccc2)oc1C [Example 91, 2-[2-[3-methoxy-4-[(2-phenyl-5-methyl-4-oxazolyl)methoxy]benzyloxy]-3-pyridyl]acetic acid]",145 to 146,1.7,50,67
"Cc1oc(-c2ccccc2)nc1CCc1ccc(COc2ccccc2CC(=O)O)cc1 [Example 97, 2-[2-[4-[2-(5-methyl-2-phenyl-4-oxazolyl)ethyl]benzyloxy]phenyl]acetic acid]",130 to 131,26,34,83
"Cc1oc(-c2ccc3ccccc3c2)nc1COc1ccc(COc2ncccc2CC(=O)O)cc1 [Example 130, 2-[2-[4-[5-methyl-2-(2-naphthyl)-4-oxazolylmethoxy]benzyloxy]-3-pyridyl]acetic acid]",155 to 156,11,55,63

# Further lines, with some results ahead:
melting point [°C],EC50 [1] [nM],SMILES,"inhibition in vivo at 0.005 % [2, 3] [%]","inhibition in vivo at 0.005 % [2, 4] [%]"
141 to 142,120,"Cc1oc(-c2ccccc2)nc1CCOc1ccc(COc2ccccc2CC(=O)O)cc1 [Example 58, 2-[2-[4-[2-(5-methyl-2-phenyl-4-oxazolyl)ethoxy]benzyloxy]phenyl]acetic acid]",57,75
147 to 148,7.1,"Cc1oc(-c2ccccc2)nc1COc1ccc(COc2ncccc2CC(=O)O)cn1 [Example 88, 2-[2-[[6-[(5-methyl-2-phenyl-4-oxazolyl)methoxy]-3-pyridyl]methoxy]-3-pyridyl]acetic acid]",47,90
151 to 152,370,"Cc1oc(-c2ccco2)nc1COc1ccc(COc2ncccc2CC(=O)O)cc1 [Example 92, 2-[2-[4-[[2-(2-furyl)-5-methyl-4-oxazolyl]methoxy]benzyloxy]-3-pyridyl]acetic acid]",58,83
128 to 129,390,"Cc1sc(-c2ccccc2)nc1COc1ccc(COc2ncccc2CC(=O)O)cc1 [Example 93, 2-[2-[4-[(5-methyl-2-phenyl-4-thiazolyl)methoxy]benzyloxy]-3-pyridyl]acetic acid]",45,53
120 to 121,87,"Cc1oc(-c2ccccc2)nc1CCc1noc(COc2ccccc2CC(=O)O)n1 [Example 107, 2-[2-[[3-[2-(5-methyl-2-phenyl-4-oxazolyl)ethyl]-1,2,4-oxadiazol-5-yl]methoxy]phenyl]acetic acid]",40,39
138 to 139,42,"Cc1ccc(CC(=O)O)c(OCc2ccc(OCc3nc(-c4ccccc4)oc3C)cc2)n1 [Example 110, 2-[6-methyl-2-[4-[(5-methyl-2-phenyl-4-oxazolyl)methoxy]benzyloxy]-3-pyridyl]acetic acid]",51,74
129 to 130,59,"Cc1oc(-c2ccccc2)nc1COc1cc(COc2ncccc2CC(=O)O)on1 [Example 129, 2-[2-[[3-[(5-methyl-2-phenyl-4-oxazolyl)methoxy]-5-isoxazolyl]methoxy]-3-pyridyl]acetic acid]",45,93

# — patent US7238716B2, “Alkanoic acid derivatives process for their production and use thereof” (Takeda Pharmaceuticals Company Limited, priority 2000, dated 2007)
